# Like-named read-outs stand apart in the source and are kept apart here.
# Tested on: OVCAR-8 cells
# Test: Drug-siRNA combination screen: 346-compound anticancer library at 100 nM, CCK-8 viability
# Settings: for synergy / antagonism of drug with gene knockdowns, in words / number of genes (of 18) whose knockdown synergizes with the drug: drug 100 nM; for synergy / antagonism of drug with gene knockdowns, in words: panel of 18 siRNA knockdowns; for number of genes (of 18) whose knockdown synergizes with the drug: siRNA knockdown
# [1] = OVCAR-8, drug 100 nM plus siRNA knockdown of each of 18 genes, distance VAB−VA×VB in SD, single gene contributes at most +5 / −5, negative = synergy, positive = antagonism
# Experimental: Comparisons of drug effect were performed using data generated on the same day. A minimum of two replicates was performed with drug library screening and a minimum of three replicates was done for all other tests.
# Combinatorial effects were classified using two measures of combinatorial action: 1) the coefficient of drug interaction (CDI), defined as (VAB/(VA×VB)) and 2) the distance in standard deviation (SD) of VAB−(VA×VB). […] In confirmation studies significance was determined using a Student's T-test (two-tailed, unpaired) with p<0.05 indicating significance.
# To measure the effect of a gene on drug effect, comparisons were made between high expressers of each gene and the wild type cells exposed to sham reagents.
# In theory, CDI<1 is indicative of synergy while CDI>1 is indicative of antagonism or additive effect in a multiplicative model.
structure (smiles),measurement,setting,value
O=C(O)C(Cc1c[nH]c2ccccc12)N1C(=O)c2ccccc2C1=O (centres unmarked) [RG108],Score (sum of observed SD values for 18 genes),[1],−0.52 SD
Cc1nc2ccc(CN(C)c3ccc(C(=O)N[C@@H](CCC(=O)O)C(=O)O)s3)cc2c(=O)[nH]1 [Raltitrexed],Score (sum of observed SD values for 18 genes),[1],44.53 SD
COc1ccccc1OCC(O)CN1CCN(CC(=O)Nc2c(C)cccc2C)CC1 (centres unmarked) [Ranolazine],Score (sum of observed SD values for 18 genes),[1],−11.08 SD
CNC(=O)c1cc(Oc2ccc(NC(=O)Nc3cc(C(C)(C)C)nn3-c3ccc4ncccc4c3)c(F)c2)ccn1 [Rebastinib],Score (sum of observed SD values for 18 genes),[1],17.66 SD
CNC(=O)c1cc(Oc2ccc(NC(=O)Nc3ccc(Cl)c(C(F)(F)F)c3)c(F)c2)ccn1 [Regorafinib],Score (sum of observed SD values for 18 genes),[1],3.75 SD
COc1cc(OC)c(/C=C/S(=O)(=O)Cc2ccc(OC)c(NCC(=O)O)c2)c(OC)c1 [Rigosertib],Score (sum of observed SD values for 18 genes),[1],6.43 SD
CN(CCOc1ccc(CC2SC(=O)NC2=O)cc1)c1ccccn1 (centres unmarked) [Rosiglitazone],Score (sum of observed SD values for 18 genes),[1],−27.32 SD
CNCc1ccc(-c2[nH]c3cc(F)cc4c3c2CCNC4=O)cc1 [Rucaparib],Score (sum of observed SD values for 18 genes),[1],−3.34 SD
Cn1cc(C2=C(c3ccc(Cl)cc3Cl)C(=O)NC2=O)c2ccccc21 [SB216763],Score (sum of observed SD values for 18 genes),[1],−11.62 SD
CN(C)CCOc1ccc(-c2nc(-c3ccncc3)c(-c3ccc4c(c3)CC/C4=N\O)[nH]2)cc1 [SB590885],Score (sum of observed SD values for 18 genes),[1],27.34 SD
same,"synergy / antagonism of drug with gene knockdowns, in words",OVCAR-8,antagonistic with multiple genes
C[S+]([O-])c1ccc(-c2nc(-c3ccc(F)cc3)c(-c3ccncc3)[nH]2)cc1 (centres unmarked) [SB 203580],Score (sum of observed SD values for 18 genes),[1],−40.85 SD
same,number of genes (of 18) whose knockdown synergizes with the drug,OVCAR-8,9 genes
NC(=O)c1ccc(-c2nc(-c3ccccn3)c(-c3ccc4c(c3)OCO4)[nH]2)cc1 [SB 431542],Score (sum of observed SD values for 18 genes),[1],−30.82 SD
Cc1cccc(-c2[nH]c(C(C)(C)C)nc2-c2ccc3nccnc3c2)n1 [SB 525334],Score (sum of observed SD values for 18 genes),[1],−32.05 SD
Cc1ccc(C(=O)N(CCCN)[C@@H](c2oc3cc(Cl)ccc3c(=O)c2Cc2ccccc2)C(C)C)cc1 [SB 743921],Score (sum of observed SD values for 18 genes),[1],−4.09 SD
CN1CCC(CNc2ccc3ncc(-c4cccc(OC(F)(F)F)c4)n3n2)CC1 [SGI - 1776],Score (sum of observed SD values for 18 genes),[1],−12.21 SD
Cn1cc(-c2ccc3nnc(Sc4ccc5ncccc5c4)n3n2)cn1 [SGX-523],Score (sum of observed SD values for 18 genes),[1],−8.5 SD
CC(C)(C)c1cnc(CSc2cnc(NC(=O)C3CCNCC3)s2)o1 [SNS-032],Score (sum of observed SD values for 18 genes),[1],-62.71 SD
same,"synergy / antagonism of drug with gene knockdowns, in words",OVCAR-8,strong synergies with multiple genes
O=C(Nc1ccccc1-c1cn2c(CN3CCNCC3)csc2n1)c1cnc2ccccc2n1 [SRT1720],Score (sum of observed SD values for 18 genes),[1],−34.27 SD
Cc1cccc(Nc2nc(-c3ccncc3)cs2)c1 [STF-62247],Score (sum of observed SD values for 18 genes),[1],−24.47 SD
Cc1[nH]c(/C=C2\C(=O)Nc3ccc(S(=O)(=O)N(C)c4cccc(Cl)c4)cc32)c(C)c1C(=O)N1CCN(C)CC1 [SU11274],Score (sum of observed SD values for 18 genes),[1],−0.42 SD
CC[C@@H](C(=O)[C@@H](C)[C@@H](O)[C@H](C)[C@@H]1O[C@@H]([C@@H](CC)C(=O)O)CC[C@@H]1C)[C@H]1O[C@]2(C=C[C@@H](O)[C@]3(CC[C@@](C)([C@H]4CC[C@](O)(CC)[C@H](C)O4)O3)O2)[C@H](C)C[C@@H]1C [Salinomycin],Score (sum of observed SD values for 18 genes),[1],−21.61 SD
CN1CCN(CCOc2cc(OC3CCOCC3)c3c(Nc4c(Cl)ccc5c4OCO5)ncnc3c2)CC1 [Saracatinib],Score (sum of observed SD values for 18 genes),[1],-53.14 SD
CC[C@H](CO)Nc1nc(NCc2ccccc2)c2ncn(C(C)C)c2n1 [Seliciclib],Score (sum of observed SD values for 18 genes),,−1.72 SD
Cn1cnc2c(F)c(Nc3ccc(Br)cc3Cl)c(C(=O)NOCCO)cc21 [Selumetinib],Score (sum of observed SD values for 18 genes),[1],-63.99 SD
same,number of genes (of 18) whose knockdown synergizes with the drug,OVCAR-8,16 genes
c1ccc2c(CCNc3ccc(Nc4ccncc4)cc3)c[nH]c2c1 [Serdemetan],Score (sum of observed SD values for 18 genes),[1],−29.35 SD

# — patent US11946094B2, “Combination therapies and methods of use thereof” (Augusta University Research Institute, Inc., priority 2017, dated 2024)
